# Results reported in patent publication US20070128217A1 (priority 2003, published 2007).
# What was measured:
# [1] = test system: antibodies in sera from SARS patients (sera 1a, 1b, 2, 6, 37, 62, London, SARS-yellow, SARS-green); type: binding, human; set-up: Binding of serum 6 to linear peptides of protein X1 of SARS-CoV Urbani / Binding of serum 37 to linear peptides of protein X1 of SARS-CoV Urbani / Binding of serum 6 to looped/cyclic peptide (PEPSCAN-ELISA) / Binding of serum 37 to looped/cyclic peptide (PEPSCAN-ELISA) / Binding of serum 37 to looped/cyclic peptides of protein X1 of SARS-CoV Urbani / Binding of serum 6 to linear peptides of protein X2 / Binding of serum 37 to linear peptides of protein X2 / Binding of serum 37 to looped/cyclic peptides of protein X2 of SARS-CoV Urbani / Binding of serum 6 to linear peptides of protein M of SARS-CoV Urbani / Binding of serum 37 to linear peptides of protein M of SARS-CoV Urbani / Binding of serum 6 to looped/cyclic peptides of protein M of SARS-CoV Urbani / Binding of serum 37 to looped/cyclic peptides of protein M of SARS-CoV Urbani / Binding of serum 6 to linear peptides of protein X3 of SARS-CoV Urbani / Binding of serum 37 to linear peptides of protein X3 of SARS-CoV Urbani / Binding of serum 37 to looped/cyclic peptides of protein X3 of SARS-CoV Urbani / Binding of serum 6 to linear peptides of protein X4 of SARS-CoV Urbani / Binding of serum 37 to linear peptides of protein X4 of SARS-CoV Urbani / Binding of serum 37 to looped/cyclic peptides of protein X4 of SARS-CoV Urbani / Binding of serum 6 to linear peptides of protein X5 of SARS-CoV Urbani / Binding of serum 37 to linear peptides of protein X5 of SARS-CoV Urbani / Binding of serum 37 to looped/cyclic peptides of protein X5 of SARS-CoV Urbani / Binding of serum 6 to linear peptides of protein N of SARS-CoV Urbani / Binding of serum 37 to linear peptides of protein N of SARS-CoV Urbani / Binding of serum 6 to linear peptide (PEPSCAN-ELISA) / Binding of serum 1a to looped/cyclic peptides of protein N of SARS-CoV Urbani / Binding of serum 1b to looped/cyclic peptides of protein N of SARS-CoV Urbani / Binding of serum 2 to looped/cyclic peptides of protein N of SARS-CoV Urbani / Binding of serum 6 to looped/cyclic peptides of protein N of SARS-CoV Urbani / Binding of serum 37 to looped/cyclic peptides of protein N of SARS-CoV Urbani / Binding of serum 62 to looped/cyclic peptides of protein N of SARS-CoV Urbani / Binding of serum London to looped/cyclic peptides of protein N of SARS-CoV Urbani / Binding of serum SARS-green to looped/cyclic peptides of protein N of SARS-CoV Urbani: unit not given here
# [2] = test system: control sera (pooled serum of ten healthy LUMC hospital workers; commercial negative donor pooled serum from the Dutch bloodbank); type: binding, human; set-up: Binding of Control serum LUMC to linear peptides / Binding of Control serum Blood-bank to linear peptides / Binding of Control serum LUMC to looped peptides / Binding of Control Serum Blood-Bank to Looped peptides / Binding of Control serum LUMC to linear peptides of the protein M of SARS-CoV Urbani / Binding of Control serum Blood-bank to linear peptides of the protein M of SARS-CoV Urbani / Binding of Control serum LUMC to looped peptides of the protein M of SARS-CoV Urbani / Binding of Control Serum Blood-Bank to Looped peptides of the protein M of SARS-CoV Urbani: unit not given here
# [3] = test system: rabbit serum obtained by immunizing a rabbit with the SARS-CoV strain Frankfurt 1; type: binding; set-up: Binding of a rabbit serum to linear peptides / Binding of a rabbit serum to looped peptides / Rabbit serum linear peptides / Rabbit serum looped peptides / Binding of a rabbit serum to linear peptides of protein N of SARS-CoV Urbani (Rabbit serum linear peptides) / Binding of a rabbit serum to looped/cyclic peptides of protein N of SARS-CoV Urbani (Rabbit serum looped peptides): unit not given here
sequence,measurement,setting,value
TSTHFAFACADGTRH,Binding of serum 1a to linear peptides of protein X4 of SARS-CoV Urbani,[1],0.7
same,Binding of serum 1a to looped/cyclic peptides of protein X4 of SARS-CoV Urbani,[1],0.8
same,Binding of serum 1b to linear peptides of protein X4 of SARS-CoV Urbani,[1],0.6
same,Binding of serum 1b to looped/cyclic peptides of protein X4 of SARS-CoV Urbani,[1],0.7
same,Binding of serum 2 to linear peptides of protein X4 of SARS-CoV Urbani,[1],0.5
same,Binding of serum 2 to looped/cyclic peptides of protein X4 of SARS-CoV Urbani,[1],0.6
same,Binding of serum 6 to linear peptides of protein X4 of SARS-CoV Urbani,[1],0.7
same,Binding of serum 6 to looped/cyclic peptides of protein X4 of SARS-CoV Urbani,[1],0.7
same,Binding of serum 37 to linear peptides of protein X4 of SARS-CoV Urbani,[1],0.7
same,Binding of serum 37 to looped/cyclic peptides of protein X4 of SARS-CoV Urbani,[1],0.7
same,Binding of serum 62 to linear peptides of protein X4 of SARS-CoV Urbani,[1],0.8
same,Binding of serum 62 to looped/cyclic peptides of protein X4 of SARS-CoV Urbani,[1],0.8
same,Binding of serum London to linear peptides of protein X4 of SARS-CoV Urbani,[1],0.8
same,Binding of serum London to looped/cyclic peptides of protein X4 of SARS-CoV Urbani,[1],0.4
same,Binding of serum SARS-green to linear peptides of protein X4 of SARS-CoV Urbani,[1],0.6
same,Binding of serum SARS-green to looped/cyclic peptides of protein X4 of SARS-CoV Urbani,[1],0.6
same,Binding of serum SARS-yellow to linear peptides of protein X4 of SARS-CoV Urbani,[1],0.2
same,Binding of serum SARS-yellow to looped/cyclic peptides of protein X4 of SARS-CoV Urbani,[1],0.7
same,Binding of Control Serum Blood-Bank to Looped peptides,[2],0.8
same,Binding of Control serum Blood-bank to linear peptides,[2],0.7
same,Binding of Control serum LUMC to linear peptides,[2],0.8
same,Binding of Control serum LUMC to looped peptides,[2],0.8
same,Rabbit serum linear peptides,[3],0.5
same,Rabbit serum looped peptides,[3],0.7
TTDTGIENATFFIFN,Binding of serum 1a to linear peptides of protein X1 of SARS-CoV Urbani,[1],0.8
same,Binding of serum 1a to looped/cyclic peptides of protein X1 of SARS-CoV Urbani,[1],0.6
same,Binding of serum 1b to linear peptides of protein X1 of SARS-CoV Urbani,[1],0.5
same,Binding of serum 1b to looped/cyclic peptides of protein X1 of SARS-CoV Urbani,[1],0.6
same,Binding of serum 2 to linear peptides of protein X1 of SARS-CoV Urbani,[1],0.6
same,Binding of serum 2 to looped/cyclic peptides of protein X1 of SARS-CoV Urbani,[1],0.7
same,Binding of serum 6 to linear peptides of protein X1 of SARS-CoV Urbani,[1],0.5
same,Binding of serum 6 to looped/cyclic peptides of protein X1 of SARS-CoV Urbani,[1],0.6
same,Binding of serum 37 to linear peptides of protein X1 of SARS-CoV Urbani,[1],0.6
same,Binding of serum 37 to looped/cyclic peptides of protein X1 of SARS-CoV Urbani,[1],1.0
same,Binding of serum 62 to linear peptides of protein X1 of SARS-CoV Urbani,[1],0.5
same,Binding of serum 62 to looped/cyclic peptides of protein X1 of SARS-CoV Urbani,[1],0.9
same,Binding of serum London to linear peptides of protein X1 of SARS-CoV Urbani,[1],0.3
same,Binding of serum London to looped/cyclic peptides of protein X1 of SARS-CoV Urbani,[1],0.3
same,Binding of serum SARS-green to linear peptides of protein X1 of SARS-CoV Urbani,[1],0.4
same,Binding of serum SARS-green to looped/cyclic peptides of protein X1 of SARS-CoV Urbani,[1],0.6
same,Binding of serum SARS-yellow to linear peptides of protein X1 of SARS-CoV Urbani,[1],0.5
same,Binding of serum SARS-yellow to looped/cyclic peptides of protein X1 of SARS-CoV Urbani,[1],0.5
same,Binding of Control Serum Blood-Bank to Looped peptides,[2],0.8
same,Binding of Control serum Blood-bank to linear peptides,[2],0.6
same,Binding of Control serum LUMC to linear peptides,[2],1.0
same,Binding of Control serum LUMC to looped peptides,[2],0.8
same,Binding of a rabbit serum to linear peptides,[3],0.1
same,Binding of a rabbit serum to looped peptides,[3],0.5
TVATSRTLSYYKLGA,Binding of serum 1a to linear peptides of protein M of SARS-CoV Urbani,[1],0.7
same,Binding of serum 1a to looped/cyclic peptides of protein M of SARS-CoV Urbani,[1],0.8
same,Binding of serum 1b to linear peptides of protein M of SARS-CoV Urbani,[1],0.6
same,Binding of serum 1b to looped/cyclic peptides of protein M of SARS-CoV Urbani,[1],0.4
same,Binding of serum 2 to linear peptides of protein M of SARS-CoV Urbani,[1],0.7
same,Binding of serum 2 to looped/cyclic peptides of protein M of SARS-CoV Urbani,[1],0.6
same,Binding of serum 6 to linear peptides of protein M of SARS-CoV Urbani,[1],0.6
same,Binding of serum 6 to looped/cyclic peptides of protein M of SARS-CoV Urbani,[1],1.1
same,Binding of serum 37 to linear peptides of protein M of SARS-CoV Urbani,[1],0.8
same,Binding of serum 37 to looped/cyclic peptides of protein M of SARS-CoV Urbani,[1],0.5
same,Binding of serum 62 to linear peptides of protein M of SARS-CoV Urbani,[1],0.8
same,Binding of serum 62 to looped/cyclic peptides of protein M of SARS-CoV Urbani,[1],0.5
same,Binding of serum London to linear peptides of protein M of SARS-CoV Urbani,[1],0.4
same,Binding of serum London to looped/cyclic peptides of protein M of SARS-CoV Urbani,[1],0.3
same,Binding of serum SARS-green to linear peptides of protein M of SARS-CoV Urbani,[1],0.3
same,Binding of serum SARS-green to looped/cyclic peptides of protein M of SARS-CoV Urbani,[1],0.4
same,Binding of serum SARS-yellow to linear peptides of protein M of SARS-CoV Urbani,[1],0.1
same,Binding of serum SARS-yellow to looped/cyclic peptides of protein M of SARS-CoV Urbani,[1],0.5
same,Binding of Control Serum Blood-Bank to Looped peptides of the protein M of SARS-CoV Urbani,[2],0.7
same,Binding of Control serum Blood-bank to linear peptides of the protein M of SARS-CoV Urbani,[2],0.8
same,Binding of Control serum LUMC to linear peptides of the protein M of SARS-CoV Urbani,[2],0.6
same,Binding of Control serum LUMC to looped peptides of the protein M of SARS-CoV Urbani,[2],0.7
same,Rabbit serum linear peptides,[3],0.8
same,Rabbit serum looped peptides,[3],0.2
TYQLRARSVSPKLFI,Binding of serum 1a to linear peptides of protein X4 of SARS-CoV Urbani,[1],0.8
same,Binding of serum 1a to looped/cyclic peptides of protein X4 of SARS-CoV Urbani,[1],0.9
same,Binding of serum 1b to linear peptides of protein X4 of SARS-CoV Urbani,[1],0.6
same,Binding of serum 1b to looped/cyclic peptides of protein X4 of SARS-CoV Urbani,[1],0.7
same,Binding of serum 2 to linear peptides of protein X4 of SARS-CoV Urbani,[1],0.7
same,Binding of serum 2 to looped/cyclic peptides of protein X4 of SARS-CoV Urbani,[1],0.8
same,Binding of serum 6 to linear peptides of protein X4 of SARS-CoV Urbani,[1],0.9
same,Binding of serum 6 to looped/cyclic peptides of protein X4 of SARS-CoV Urbani,[1],1.3
same,Binding of serum 37 to linear peptides of protein X4 of SARS-CoV Urbani,[1],0.8
same,Binding of serum 37 to looped/cyclic peptides of protein X4 of SARS-CoV Urbani,[1],0.6
same,Binding of serum 62 to linear peptides of protein X4 of SARS-CoV Urbani,[1],0.9
same,Binding of serum 62 to looped/cyclic peptides of protein X4 of SARS-CoV Urbani,[1],0.8
same,Binding of serum London to linear peptides of protein X4 of SARS-CoV Urbani,[1],0.9
same,Binding of serum London to looped/cyclic peptides of protein X4 of SARS-CoV Urbani,[1],1.4
same,Binding of serum SARS-green to linear peptides of protein X4 of SARS-CoV Urbani,[1],0.7
same,Binding of serum SARS-green to looped/cyclic peptides of protein X4 of SARS-CoV Urbani,[1],0.2
same,Binding of serum SARS-yellow to linear peptides of protein X4 of SARS-CoV Urbani,[1],0.6
same,Binding of serum SARS-yellow to looped/cyclic peptides of protein X4 of SARS-CoV Urbani,[1],0.9
same,Binding of Control Serum Blood-Bank to Looped peptides,[2],0.9
same,Binding of Control serum Blood-bank to linear peptides,[2],1.0
same,Binding of Control serum LUMC to linear peptides,[2],0.7
same,Binding of Control serum LUMC to looped peptides,[2],0.9
same,Recognition of the peptide by the rabbit serum,[3],recognized
